Assay results as given in patent US8080553B2, “Methods and reagents for the treatment of immunoinflammatory disorders” (Zalicus Inc., priority 2003, dated 2011).
Where “and” joins values, the source holds several entries; their conditions need not be identical. Equal values may be shown once. Where a name gives a salt, the structure may show the parent alone. Read-outs that look alike come from different tables or passages of the source.

Legend:
[1] = tested on: TNFα secretion in white blood cells from human buffy coat; test: TNFα secretion assay, cells stimulated with phorbol 12-myristate 13-acetate and ionomycin (Tables 7-26); details: for percent inhibition of TNFα secretion: dipyridamole 0 μM; for inhibition at 0.3 µM: read-out: percent inhibition of TNFα secretion, dipyridamole 0.3 μM; for inhibition at 19 µM: read-out: percent inhibition of TNFα secretion, dipyridamole 19 μM; for inhibition at 39 µM: read-out: percent inhibition of TNFα secretion, dipyridamole 39 μM
Procedure: (§1) Drugs were added to the indicated concentration. […] The plate was then washed again with 0.1% Tween 20/PBS. An HRP-luminescent substrate was added to each well, and the light intensity of each well was measured using a plate luminometer.

[2] = tested on: TNFα secretion in white blood cells from human buffy coat
Procedure: as §1

[3] = Homo sapiens, Nortriptyl (μM): 0, 0.52, 1, 2.1, 4.2, 8.3, 17, 33, 67
[4] = Homo sapiens, Ro-20-1724 (μM) by grid row: r5 0, r6 0.28, r7 0.56, r8 1.1, r9 2.2, r10 4.5, r11 9, r12 18, r13 36
[5] = Homo sapiens, amoxapine (μM) by grid row: r5 0, r6 0.25, r7 0.5, r8 1, r9 2, r10 4, r11 8, r12 16, r13 32
[6] = Homo sapiens, fluoxetine (μM) by grid row: r5 0, r6 0.45, r7 0.9, r8 1.8, r9 3.6, r10 7.2, r11 14, r12 29, r13 58
[7] = Homo sapiens, paroxetine (μM): 0, 0.21, 0.42, 0.83, 1.7, 3.3, 6.7, 13, 27

Structure (SMILES): C[C@]12C=CC(=O)C=C1CC[C@@H]1[C@@H]2[C@@H](O)C[C@@]2(C)[C@H]1CC[C@]2(O)C(=O)CO [Prednisolone]
- inhibition at 0.5 µM ([1]; Homo sapiens, read-out: percent inhibition of TNFα secretion, prednisolone 0.5 μM, dipyridamole (μM) by grid row: r5 0, r6 0.3, r7 0.61, r8 1.2, r9 2.4, r10 4.9, r11 9.7, r12 19, r13 39): 29.9%

Structure (SMILES): CCCC1O[C@@H]2C[C@H]3[C@@H]4CCC5=CC(=O)C=C[C@]5(C)[C@H]4[C@@H](O)C[C@]3(C)[C@]2(C(=O)CO)O1 (stereo partly shown) [Budesonide]
- inhibition at […] ([1]; Homo sapiens, read-out: percent inhibition of TNFα secretion, budesonide 35 nM, dipyridamole (μM as printed) by grid row: r5 0, r6 30, r7 121, r8 486, r9 1943, r10 7773): 36.3%

Structure (SMILES): CN1CCC(=C2c3ccccc3C=Cc3ccccc32)CC1 [Cyproheptadine HCl]
- percent inhibition of TNFα secretion ([1]; cyproheptadine HCl (μM) by grid row: r5 0, r6 0.24, r7 0.48, r8 0.96, r9 1.9, r10 3.9, r11 7.7, r12 15, r13 31): 29%

Structure (SMILES): CCOC(=O)N1CCC(=C2c3ccc(Cl)cc3CCc3cccnc32)CC1 [Loratadine]
- percent inhibition of TNFα secretion ([1]; loratadine (μM) by grid row: r5 0, r6 0.2, r7 0.41, r8 0.82, r9 1.6, r10 3.3, r11 6.5, r12 13, r13 26): 31%

Structure (SMILES): OCCN(CCO)c1nc(N2CCCCC2)c2nc(N(CCO)CCO)nc(N3CCCCC3)c2n1 [Dipyridamole, 2,6-bis(diethanolamino)-4,8-dipiperidinopyrimido(5,4-d)pyrimidine]
- inhibition at 0.3 µM [1, 3]: 14%
- inhibition at 0.3 µM [1, 4]: -1.96%
- inhibition at 0.3 µM [1, 5]: 19%
- inhibition at 0.3 µM [1, 6]: 18%
- inhibition at 0.3 µM [1, 7]: 21%
- inhibition at 19 µM [1, 3]: 64%
- inhibition at 19 µM [1, 4]: 64%
- inhibition at 19 µM [1, 6]: 62%
- inhibition at 19 µM [1, 7]: 60%
- inhibition at 39 µM [1, 3]: 80%
- inhibition at 39 µM [1, 5]: 78%
- inhibition at 39 µM [1, 6]: 76%
- inhibition at 39 µM [1, 7]: 76%

Structure (SMILES): COc1ccc(C2CNC(=O)C2)cc1OC1CCCC1 (stereo not shown) [Rolipram, 4-[3-(cyclopentyloxy)-4-methoxyphenyl]-2-pyrrolidone]
- inhibition at 0.5 µM ([1]; Homo sapiens, read-out: percent inhibition of TNFα secretion, rolipram 0.5 μM, dipyridamole (μM): 0, 0.15, 0.3, 0.61, 1.2, 2.4, 4.9, 9.7, 19): 36.8%
- inhibition at 1 µM ([1]; Homo sapiens, read-out: percent inhibition of TNFα secretion, rolipram 1 μM, dipyridamole (μM): 0, 0.15, 0.3, 0.61, 1.2, 2.4, 4.9, 9.7, 19): 38.9%

Structure (SMILES): C[C@H]1C[C@H]2[C@@H]3CCC4=CC(=O)C=C[C@]4(C)[C@@]3(F)[C@@H](O)C[C@]2(C)[C@@]1(O)C(=O)CO [Betamethasone]
- inhibition [2]: 34.9% and 35.2%

Structure (SMILES): CC(C)C(=O)c1c(C(C)C)nn2ccccc12 [Ibudilast]
- inhibition at 0.5 µM ([1]; Homo sapiens, read-out: percent inhibition of TNFα secretion, ibudilast 0.5 μM, dipyridamole (μM): 0, 0.15, 0.3, 0.61, 1.2, 2.4, 4.9, 9.7, 19): 22.9%
- inhibition at 1 µM ([1]; Homo sapiens, read-out: percent inhibition of TNFα secretion, ibudilast 1 μM, dipyridamole (μM): 0, 0.15, 0.3, 0.61, 1.2, 2.4, 4.9, 9.7, 19): 37.4%
- inhibition at 2 µM ([1]; Homo sapiens, read-out: percent inhibition of TNFα secretion, ibudilast 2 μM, dipyridamole (μM): 0, 0.15, 0.3, 0.61, 1.2, 2.4, 4.9, 9.7, 19): 42.9%
- inhibition at 4 µM ([1]; Homo sapiens, read-out: percent inhibition of TNFα secretion, ibudilast 4 μM, dipyridamole (μM): 0, 0.15, 0.3, 0.61, 1.2, 2.4, 4.9, 9.7, 19): 45.9%
- inhibition at 8 µM ([1]; Homo sapiens, read-out: percent inhibition of TNFα secretion, ibudilast 8 μM, dipyridamole (μM): 0, 0.15, 0.3, 0.61, 1.2, 2.4, 4.9, 9.7, 19): 53.8%
